# Tests used:
# Rattus norvegicus [1] = experiment: Toxicity in rat spontaneous hypertensive model assessed as heart rate at 80 mg/kg, po measured at 2 hrs by tail-cuff method (reference value: 399.5 +/- 19.68 bpm); type: organism-based; set-up: dose 80 mg/kg, route oral; conditions: in vivo
# Rattus norvegicus [2] = experiment: Antihypertensive activity in rat spontaneous hypertensive model assessed as mean arterial blood pressure at 80 mg/kg, po measured at 1 hr by tail-cuff method (reference value: 158.9 +/- 13.65 mmHg); type: functional, Artery
# Rattus norvegicus [3] = experiment: Antihypertensive activity in rat spontaneous hypertensive model assessed as diastolic arterial blood pressure at 80 mg/kg, po measured at 4 hrs by tail-cuff method (reference value: 141.4 +/- 7.11 mmHg); type: functional, Artery
# Rattus norvegicus [4] = experiment: Antihypertensive activity in rat spontaneous hypertensive model assessed as mean arterial blood pressure at 80 mg/kg, po measured at 6 hrs by tail-cuff method (reference value: 155.8 +/- 7.97 mmHg); type: functional, Artery
# Rattus norvegicus [5] = experiment: Toxicity in rat spontaneous hypertensive model assessed as heart rate at 80 mg/kg, po measured at 1 hr by tail-cuff method (reference value: 403.9 +/- 12.41 bpm); type: organism-based; set-up: dose 80 mg/kg, route oral; conditions: in vivo
# Rattus norvegicus [6] = experiment: Antihypertensive activity in rat spontaneous hypertensive model assessed as systolic arterial blood pressure at 80 mg/kg, po measured at 8 hrs by tail-cuff method (reference value: 174 +/- 12.1 mmHg); type: functional, Artery
# Rattus norvegicus [7] = experiment: Antihypertensive activity in rat spontaneous hypertensive model assessed as diastolic arterial blood pressure at 80 mg/kg, po measured at 2 hrs by tail-cuff method (reference value: 142.9 +/- 18.07 mmHg); type: functional, Artery
# Rattus norvegicus [8] = experiment: Toxicity in rat spontaneous hypertensive model assessed as heart rate at 80 mg/kg, po measured at 6 hrs by tail-cuff method (reference value: 405.1 +/- 24 bpm); type: organism-based; set-up: dose 80 mg/kg, route oral; conditions: in vivo
# Rattus norvegicus [9] = experiment: Antihypertensive activity in rat spontaneous hypertensive model assessed as diastolic arterial blood pressure at 80 mg/kg, po measured at 1 hr by tail-cuff method (reference value: 146.2 +/- 13.19 mmHg); type: functional, Artery
# Rattus norvegicus [10] = experiment: Antihypertensive activity in rat spontaneous hypertensive model assessed as systolic arterial blood pressure at 80 mg/kg, po measured at 4 hrs by tail-cuff method (reference value: 172.9 +/- 10.21 mmHg); type: functional, Artery
# Rattus norvegicus [11] = experiment: Toxicity in rat spontaneous hypertensive model assessed as heart rate at 80 mg/kg, po measured at 4 hrs by tail-cuff method (reference value: 403.1 +/- 15.92 bpm); type: organism-based; set-up: dose 80 mg/kg, route oral; conditions: in vivo
# Rattus norvegicus [12] = experiment: Antihypertensive activity in rat spontaneous hypertensive model assessed as mean arterial blood pressure at 80 mg/kg, po measured at 0.5 hrs by tail-cuff method (reference value: 156.2 +/- 7.21 mmHg); type: functional, Artery
# Rattus norvegicus [13] = experiment: Antihypertensive activity in rat spontaneous hypertensive model assessed as diastolic arterial blood pressure at 80 mg/kg, po measured at 0.5 hrs by tail-cuff method (reference value: 138.7 +/- 9.2 mmHg); type: functional, Artery
# Rattus norvegicus [14] = experiment: Antihypertensive activity in rat spontaneous hypertensive model assessed as systolic arterial blood pressure at 80 mg/kg, po measured at 1 hr by tail-cuff method (reference value: 181.2 +/- 16.37 mmHg); type: functional, Artery
# Rattus norvegicus [15] = experiment: Antihypertensive activity in rat spontaneous hypertensive model assessed as diastolic arterial blood pressure at 80 mg/kg, po measured at 8 hrs by tail-cuff method (reference value: 135.3 +/- 8.21 mmHg); type: functional, Artery
# Rattus norvegicus [16] = experiment: Antihypertensive activity in rat spontaneous hypertensive model assessed as mean arterial blood pressure at 80 mg/kg, po measured at 8 hrs by tail-cuff method (reference value: 155.8 +/- 11.54 mmHg); type: functional, Artery
# Rattus norvegicus [17] = experiment: Antihypertensive activity in rat spontaneous hypertensive model assessed as mean arterial blood pressure at 80 mg/kg, po measured at 2 hrs by tail-cuff method (reference value: 157.41 +/- 9.62 mmHg); type: functional, Artery
# Rattus norvegicus [18] = experiment: Antihypertensive activity in rat spontaneous hypertensive model assessed as mean arterial blood pressure at 80 mg/kg, po measured at 4 hrs by tail-cuff method (reference value: 154.4 +/- 20.1 mmHg); type: functional, Artery
# Rattus norvegicus [19] = experiment: Toxicity in rat spontaneous hypertensive model assessed as heart rate at 80 mg/kg, po measured at 0.5 hrs by tail-cuff method (reference value: 406.5 +/- 13.15 bpm); type: organism-based; set-up: dose 80 mg/kg, route oral; conditions: in vivo
# Rattus norvegicus [20] = experiment: Toxicity in rat spontaneous hypertensive model assessed as heart rate at 80 mg/kg, po measured at 8 hrs by tail-cuff method (reference value: 397.2 +/- 24.87 bpm); type: organism-based; set-up: dose 80 mg/kg, route oral; conditions: in vivo
# Rattus norvegicus [21] = experiment: Antihypertensive activity in rat spontaneous hypertensive model assessed as systolic arterial blood pressure at 80 mg/kg, po measured at 2 hrs by tail-cuff method (reference value: 172.6 +/- 17.3 mmHg); type: functional, Artery
# Rattus norvegicus [22] = experiment: Antihypertensive activity in rat spontaneous hypertensive model assessed as diastolic arterial blood pressure at 80 mg/kg, po measured at 6 hrs by tail-cuff method (reference value: 141.2 +/- 7.34 mmHg); type: functional, Artery
# Rattus norvegicus [23] = experiment: Antihypertensive activity in rat spontaneous hypertensive model assessed as systolic arterial blood pressure at 80 mg/kg, po measured at 0.5 hrs by tail-cuff method (reference value: 178.5 +/- 10.13 mmHg); type: functional, Artery
# Rattus norvegicus [24] = experiment: Antihypertensive activity in rat spontaneous hypertensive model assessed as systolic arterial blood pressure at 80 mg/kg, po measured at 6 hrs by tail-cuff method (reference value: 176.7 +/- 15.21 mmHg); type: functional, Artery
# Rattus norvegicus [25] = experiment: Antihypertensive activity in rat spontaneous hypertensive model assessed as mean arterial blood pressure at 20 mg/kg, po measured at 2 hrs by tail-cuff method (reference value: 157.41 +/- 9.62 mmHg); type: functional, Artery
# Rattus norvegicus [26] = experiment: Antihypertensive activity in rat spontaneous hypertensive model assessed as diastolic arterial blood pressure at 20 mg/kg, po measured at 0.5 hrs by tail-cuff method (reference value: 138.7 +/- 9.2 mmHg); type: functional, Artery
# Rattus norvegicus [27] = experiment: Antihypertensive activity in rat spontaneous hypertensive model assessed as systolic arterial blood pressure at 20 mg/kg, po measured at 8 hrs by tail-cuff method (reference value: 174 +/- 12.1 mmHg); type: functional, Artery
# Rattus norvegicus [28] = experiment: Antihypertensive activity in rat spontaneous hypertensive model assessed as mean arterial blood pressure at 20 mg/kg, po measured at 6 hrs by tail-cuff method (reference value: 155.8 +/- 7.97 mmHg); type: functional, Artery
# Rattus norvegicus [29] = experiment: Toxicity in rat spontaneous hypertensive model assessed as heart rate at 20 mg/kg, po measured at 8 hrs by tail-cuff method (reference value: 397.2 +/- 24.87 bpm); type: organism-based; set-up: dose 20 mg/kg, route oral; conditions: in vivo
# Rattus norvegicus [30] = experiment: Antihypertensive activity in rat spontaneous hypertensive model assessed as diastolic arterial blood pressure at 20 mg/kg, po measured at 6 hrs by tail-cuff method (reference value: 141.2 +/- 7.34 mmHg); type: functional, Artery
# Rattus norvegicus [31] = experiment: Antihypertensive activity in rat spontaneous hypertensive model assessed as systolic arterial blood pressure at 20 mg/kg, po measured at 2 hrs by tail-cuff method (reference value: 172.6 +/- 17.3 mmHg); type: functional, Artery
# Rattus norvegicus [32] = experiment: Toxicity in rat spontaneous hypertensive model assessed as heart rate at 20 mg/kg, po measured at 6 hrs by tail-cuff method (reference value: 405.1 +/- 24 bpm); type: organism-based; set-up: dose 20 mg/kg, route oral; conditions: in vivo
# Rattus norvegicus [33] = experiment: Antihypertensive activity in rat spontaneous hypertensive model assessed as systolic arterial blood pressure at 20 mg/kg, po measured at 6 hrs by tail-cuff method (reference value: 176.7 +/- 15.21 mmHg); type: functional, Artery
# Rattus norvegicus [34] = experiment: Toxicity in rat spontaneous hypertensive model assessed as heart rate at 20 mg/kg, po measured at 4 hrs by tail-cuff method (reference value: 403.1 +/- 15.92 bpm); type: organism-based; set-up: dose 20 mg/kg, route oral; conditions: in vivo
# Rattus norvegicus [35] = experiment: Antihypertensive activity in rat spontaneous hypertensive model assessed as diastolic arterial blood pressure at 20 mg/kg, po measured at 8 hrs by tail-cuff method (reference value: 135.3 +/- 8.21 mmHg); type: functional, Artery
# Rattus norvegicus [36] = experiment: Antihypertensive activity in rat spontaneous hypertensive model assessed as systolic arterial blood pressure at 20 mg/kg, po measured at 1 hr by tail-cuff method (reference value: 181.2 +/- 16.37 mmHg); type: functional, Artery
# Rattus norvegicus [37] = experiment: Antihypertensive activity in rat spontaneous hypertensive model assessed as mean arterial blood pressure at 20 mg/kg, po measured at 4 hrs by tail-cuff method (reference value: 154.4 +/- 20.1 mmHg); type: functional, Artery
# Rattus norvegicus [38] = experiment: Antihypertensive activity in rat spontaneous hypertensive model assessed as systolic arterial blood pressure at 20 mg/kg, po measured at 0.5 hrs by tail-cuff method (reference value: 178.5 +/- 10.13 mmHg); type: functional, Artery
# Rattus norvegicus [39] = experiment: Antihypertensive activity in rat spontaneous hypertensive model assessed as diastolic arterial blood pressure at 20 mg/kg, po measured at 1 hr by tail-cuff method (reference value: 146.2 +/- 13.19 mmHg); type: functional, Artery
# Rattus norvegicus [40] = experiment: Antihypertensive activity in rat spontaneous hypertensive model assessed as mean arterial blood pressure at 20 mg/kg, po measured at 8 hrs by tail-cuff method (reference value: 155.8 +/- 11.54 mmHg); type: functional, Artery
# Rattus norvegicus [41] = experiment: Antihypertensive activity in rat spontaneous hypertensive model assessed as diastolic arterial blood pressure at 20 mg/kg, po measured at 4 hrs by tail-cuff method (reference value: 141.4 +/- 7.11 mmHg); type: functional, Artery
# Rattus norvegicus [42] = experiment: Toxicity in rat spontaneous hypertensive model assessed as heart rate at 20 mg/kg, po measured at 2 hrs by tail-cuff method (reference value: 399.5 +/- 19.68 bpm); type: organism-based; set-up: dose 20 mg/kg, route oral; conditions: in vivo
# Rattus norvegicus [43] = experiment: Toxicity in rat spontaneous hypertensive model assessed as heart rate at 20 mg/kg, po measured at 0.5 hrs by tail-cuff method (reference value: 406.5 +/- 13.15 bpm); type: organism-based; set-up: dose 20 mg/kg, route oral; conditions: in vivo
# Rattus norvegicus [44] = experiment: Antihypertensive activity in rat spontaneous hypertensive model assessed as mean arterial blood pressure at 20 mg/kg, po measured at 1 hr by tail-cuff method (reference value: 158.9 +/- 13.65 mmHg); type: functional, Artery
# Rattus norvegicus [45] = experiment: Antihypertensive activity in rat spontaneous hypertensive model assessed as systolic arterial blood pressure at 20 mg/kg, po measured at 4 hrs by tail-cuff method (reference value: 172.9 +/- 10.21 mmHg); type: functional, Artery
# Rattus norvegicus [46] = experiment: Toxicity in rat spontaneous hypertensive model assessed as heart rate at 20 mg/kg, po measured at 1 hr by tail-cuff method (reference value: 403.9 +/- 12.41 bpm); type: organism-based; set-up: dose 20 mg/kg, route oral; conditions: in vivo
# Rattus norvegicus [47] = experiment: Antihypertensive activity in rat spontaneous hypertensive model assessed as diastolic arterial blood pressure at 20 mg/kg, po measured at 2 hrs by tail-cuff method (reference value: 142.9 +/- 18.07 mmHg); type: functional, Artery
# Rattus norvegicus [48] = experiment: Antihypertensive activity in rat spontaneous hypertensive model assessed as mean arterial blood pressure at 20 mg/kg, po measured at 0.5 hrs by tail-cuff method (reference value: 156.2 +/- 7.21 mmHg); type: functional, Artery
smiles,measurement,setting,value
COc1cc2c(cc1OCC(O)CNC(C)C)COC(C)C2=O (stereo not drawn),Activity,Rattus norvegicus [1],365.1 bpm
same,Activity,Rattus norvegicus [2],123.1 mmHg
same,Activity,Rattus norvegicus [3],83 mmHg
same,Activity,Rattus norvegicus [4],114 mmHg
same,Activity,Rattus norvegicus [5],378.3 bpm
same,Activity,Rattus norvegicus [6],158.3 mmHg
same,Activity,Rattus norvegicus [7],84.1 mmHg
same,Activity,Rattus norvegicus [8],370 bpm
same,Activity,Rattus norvegicus [9],102.8 mmHg
same,Activity,Rattus norvegicus [10],141 mmHg
same,Activity,Rattus norvegicus [11],361.4 bpm
same,Activity,Rattus norvegicus [12],142.2 mmHg
same,Activity,Rattus norvegicus [13],128.7 mmHg
same,Activity,Rattus norvegicus [14],160.9 mmHg
same,Activity,Rattus norvegicus [15],98 mmHg
same,Activity,Rattus norvegicus [16],119 mmHg
same,Activity,Rattus norvegicus [17],103.9 mmHg
same,Activity,Rattus norvegicus [18],97.8 mmHg
same,Activity,Rattus norvegicus [19],385.4 bpm
same,Activity,Rattus norvegicus [20],372.8 bpm
same,Activity,Rattus norvegicus [21],152.8 mmHg
same,Activity,Rattus norvegicus [22],91.4 mmHg
same,Activity,Rattus norvegicus [23],169.2 mmHg
same,Activity,Rattus norvegicus [24],150.5 mmHg
CC(C)NCC(O)COc1cccc2ccccc12 (stereo not drawn) [PROPRANOLOL],Activity,Rattus norvegicus [25],116.8 mmHg
same,Activity,Rattus norvegicus [26],127.2 mmHg
same,Activity,Rattus norvegicus [27],163.9 mmHg
same,Activity,Rattus norvegicus [28],120.9 mmHg
same,Activity,Rattus norvegicus [29],362.3 bpm
same,Activity,Rattus norvegicus [30],100.3 mmHg
same,Activity,Rattus norvegicus [31],160.6 mmHg
same,Activity,Rattus norvegicus [32],360.1 bpm
same,Activity,Rattus norvegicus [33],161 mmHg
same,Activity,Rattus norvegicus [34],349.6 bpm
same,Activity,Rattus norvegicus [35],116.9 mmHg
same,Activity,Rattus norvegicus [36],156.8 mmHg
same,Activity,Rattus norvegicus [37],108.3 mmHg
same,Activity,Rattus norvegicus [38],168.7 mmHg
same,Activity,Rattus norvegicus [39],105.5 mmHg
same,Activity,Rattus norvegicus [40],132.6 mmHg
same,Activity,Rattus norvegicus [41],88.3 mmHg
same,Activity,Rattus norvegicus [42],350.6 bpm
same,Activity,Rattus norvegicus [43],340 bpm
same,Activity,Rattus norvegicus [44],122.6 mmHg
same,Activity,Rattus norvegicus [45],158.4 mmHg
same,Activity,Rattus norvegicus [46],339.9 bpm
same,Activity,Rattus norvegicus [47],94.1 mmHg
same,Activity,Rattus norvegicus [48],145 mmHg
